PMC6356680, “Clerodane Diterpenes from the Marine Sponge Raspailia bouryesnaultae Collected in South Brazil” (Marine Drugs, 2019)
Where two headings read alike, the source gives them in different places.

How the values were obtained:
[1] = system: HSV-1 (29R strain); assay: Viral plaque number reduction assay, HSV-1 29R strain; format: cell-based, Herpes Simplex Virus type 1; settings: for inhibition at 100 µg/mL: tested concentration 100 µg/mL
Experimental: (§1) Firstly, the cytotoxicity of compounds 1–6 was determined by SRB assay as described above. HSV-1 (KOS and 29R strains, which are sensitive and resistant to acyclovir, respectively, Faculty of Pharmacy, University of Rennes I, Rennes, France) were propagated in the permissive Vero cells. Viral stocks were titrated as based on plaque-forming units (PFU), counted by plaque assay as previously described, and stored at −80 °C until used. To perform the anti-HSV-1 screening, the viral plaque number reduction assay was used as described previously by Boff et al.. Briefly, confluent Vero cell monolayers (2.5 × 10^5 cells per well) were infected with approximately 100 PFU of each virus strain for 1 h at 37 °C. Treatments were performed by adding non-cytotoxic concentrations of the compounds after viral infection (post-infection treatment). Cells were then washed with phosphate-buffered saline (PBS) and overlaid with MEM containing 1.5% carboxymethylcellulose (CMC; Sigma-Aldrich) in the presence or absence of different concentrations of the compounds and incubated for 48 h. Cells were fixed and stained with naphthol blue-black (Sigma-Aldrich), and viral plaques were counted by using a stereomicroscope. The results were presented as percentages of viral inhibition or by IC50 values, which are defined as the concentration of each sample that inhibited viral plaque formation by 50% (IC50) when compared to untreated controls. The ratio between CC50 and IC50 values was calculated to obtain the selectivity index (SI) of each sample. Acyclovir (ACV, Sigma-Aldrich) was used as a positive control for HSV-1 (KOS strain) and as a negative control for HSV-1 (29-R strain) replication.

[2] = system: non-small cells of human lung cancer (A549); assay: in vitro; format: cell-based; settings: 48 h of treatment, sulforhodamine B assay, mean of three independent experiments, read-out: IC50 A549 Cell Line (Confidence Interval 95%)
Experimental: (§2) Non-small cells of human lung cancer cells (A549; ATCC: CCL 195) and African Green monkey kidney fibroblasts (Vero; ATCC: CCL81) were grown in Eagle’s minimum essential medium (MEM; Cultilab, Campinas, Brazil) supplemented with 1% glutamine (Gibco, Carlsbad, CA, USA) and 10% fetal bovine serum (FBS; Gibco, Carlsbad, CA, USA), and maintained at 37 °C and 5% CO2 in a humidified atmosphere. The antiproliferative screening was performed by sulforhodamine B assay (SRB). In summary, A549 cells were seeded into 96-well plates (2.5 × 10^4 cells per well) and exposed to different concentrations of compounds 1–6 for 48 h. Paclitaxel (PAC, Sigma-Aldrich, St. Louis, MO, USA) was used as a positive control. After incubation, 10% trichloroacetic acid (TCA) was added to each well to fix the cells, and then the cells were washed and stained with SRB. […] The ratio between CC50 and IC50 values was calculated to obtain the selectivity index (SI) of each sample.

[3] = in vitro; format: cell-based; settings: African green monkey (Vero) and human (A549), Vero cells (CC50) and A549 cells (IC50); CC50 Vero / IC50 A549; read-out: SI (selective index = CC50/IC50)
Experimental: as §2

[4] = system: HSV-1 (KOS strain); assay: Viral plaque number reduction assay, HSV-1 KOS strain; format: cell-based, Herpes Simplex Virus type 1; settings: for IC50: read-out: IC50 (KOS Strain)
Experimental: as §1

[5] = in vitro; format: cell-based; settings: African green monkey
Experimental: as §2, §1

[6] = system: Vero cell line; assay: in vitro; format: cell-based; settings: African green monkey, 48 h
Experimental: as §2, §1

[7] = Human alphaherpesvirus 1, 48 h, acyclovir-resistant strain, read-out: % HSV-1 Inhibition ± SD, 29R Strain
[8] = Human alphaherpesvirus 1, 48 h, tested concentration 100 µg/mL, 48 h, post-infection treatment, read-out: % HSV-1 Inhibition ± SD, KOS Strain

SMILES | inhibition at 100 µg/mL [1, 7] [%] | IC50 [2] [µM] | IC50 ([2]; Homo sapiens, A549, 48 h) [µM] | selectivity ratio at 48 h [3] | inhibition at 100 µg/mL [4, 8] [%] | CC50 at 48 h [5] [µM] | IC50 ([1]; Human alphaherpesvirus 1, 48 h, concentration ± SD that inhibited 50% of viral replication, unit inferred) [µM] | inhibition at 100 µg/mL ([4]; Human alphaherpesvirus 1, 48 h, read-out: % HSV-1 Inhibition ± SD, KOS Strain, tested concentration 100 µg/mL, 48 h, post-infection treatment) [%] | IC50 ([4]; Human alphaherpesvirus 1, 48 h) [µM] | % HSV-1 Inhibition ± SD, KOS Strain ([4]; tested concentration 100 µg/mL, 48 h, post-infection treatment) [%] | CC50 [6] [µM] | inhibition at 50 µg/mL ([1]; Human alphaherpesvirus 1, 48 h, tested concentration 50 µg/mL, acyclovir-resistant strain, read-out: % HSV-1 Inhibition ± SD, 29R Strain) [%] | inhibition at 50 µg/mL ([4]; Human alphaherpesvirus 1, 48 h, tested concentration 50 µg/mL, 48 h, post-infection treatment, read-out: % HSV-1 Inhibition ± SD, KOS Strain) [%] | % HSV-1 Inhibition ± SD, KOS Strain ([4]; tested concentration 50 µg/mL, 48 h, post-infection treatment) [%] | inhibition at 25 µg/mL ([1]; Human alphaherpesvirus 1, 48 h, tested concentration 25 µg/mL, acyclovir-resistant strain, read-out: % HSV-1 Inhibition ± SD, 29R Strain) [%] | inhibition at 25 µg/mL ([4]; Human alphaherpesvirus 1, 48 h, tested concentration 25 µg/mL, 48 h, post-infection treatment, read-out: % HSV-1 Inhibition ± SD, KOS Strain) [%]
C[C@H]1C[C@@H](O)[C@]23C(=CCC[C@@H]2[C@@]1(C)CCc1ccoc1)CO[C@H]3O [Compound 1, raspailol] | 0 | 24.1 | < 25 | 6.14 | 34.6 ± 7.36 | 148 | – | – | – | – | – | – | – | – | – | –
C=C1C(C)=CCC[C@@H]1[C@@](C)(CCc1ccoc1)[C@@H](C)CC(=O)OC [Compound 2, raspadiene] | 74 | – | 100 | > 2.49 | – | > 250 | 74.9 ± 7.3 | 83 | 81.4 ± 9.82 | 83.41 ± 16.12 | > 250 | – | – | – | – | –
CC1=CCC[C@H]2C1(C(=O)O)[C@H](O)C[C@H](C)[C@]2(C)CCc1ccoc1 (stereo partly drawn) [Compound 3, kerlinic acid] | 32 ± 6.12 | – | 66.2 | 2.74 | 24.4 ± 4.04 | 182 | – | – | – | – | – | – | – | – | – | –
COC(=O)[C@@]12C(C)=CCC[C@@H]1[C@@](C)(CCc1ccoc1)[C@@H](C)C[C@H]2O [Compound 4, kerlinic acid methyl ester] | – | 20.6 | < 25 | 4.77 | – | 98.4 | – | – | 52.4 ± 4.78 | – | – | 14.4 ± 5.46 | 50 | 50.23 ± 8.24 | – | –
CC1=CCC[C@@H]2[C@@](C)(CCc3ccoc3)[C@@H](C)CC[C@]12C [Compound 5, annonene] | 30.9 ± 9.07 | – | 144 | > 1.74 | 15.2 ± 4.65 | > 250 | – | – | – | – | – | – | – | – | – | –
CC1=CCC[C@@H]2[C@@](C)(CCc3ccoc3)[C@@H](C)C[C@@H](O)[C@]12C [Compound 6, 6-hydroxyannonene] | – | 24.5 | < 25 | 1.66 | – | 40.8 | – | – | – | – | – | – | – | – | 0 | 0
